The values below are quoted from earlier work in patent publication US7981858B1, “Methods of using zinc containing compounds to improve ocular health” (Alcon, Inc., priority 2004, dated 2011).

For data set [1] the following is noted: 80 mg of zinc, versus placebo.
The conditions of data set [2]: about 200 mg dosage of zinc per day.

In the case of `[Zn]` [zinc], the “retarding macular degeneration changes” value in data set [1] is on record as “significantly better than placebo”. For the same molecule, in data set [2], the tolerability result is recorded as “well tolerated”. Moreover, the side effects entry in data set [2] (anemia attributable to copper deficiency) was “potential side effects such as anemia”.
